Here are results for 15 compounds from patent US20090131417A1, “SUBSTITUTED PYRIDYL AMIDE COMPOUNDS AS MODULATORS OF THE HISTAMINE H3 RECEPTOR” (priority 2007, published 2009).

In test [1] the target is T1, rat H3 receptor (Rattus norvegicus, UniProt Q9QYN8).
T1 construct: expressed in transfected cells; host or cells: SK-N-MC cells (subline with reporter construct)
Description: Cyclic AMP Accumulation (rat H3). Conditions: SK-N-MC cells expressing reporter construct and rat H3 receptor; Example 1 tested as TFA salt; read-out: Rat pA2 (converted). It counts as cell-based. The procedure:
(§1) Sublines of SK-N-MC cells were created that expressed a reporter construct and either the human or rat H3 receptor. The pA2 values were obtained as described by Barbier et al. (2004). Example 1 was tested as the corresponding TFA salt.

Test [2] addresses T2, human H3 receptor (Homo sapiens, UniProt Q9Y5N1).
T2 construct: expressed in transfected cells; host or cells: SK-N-MC cells
Description: Cyclic AMP Accumulation (human H3). Conditions: SK-N-MC cells expressing reporter construct and human H3 receptor, Example 1 tested as TFA salt; for Kb: read-out: Human pA2 (converted). It counts as cell-based. The procedure: as §1

For test [3], the target named is T3, cloned human H3 receptors, stably expressed in SK-N-MC cells (Homo sapiens, UniProt Q9Y5N1).
T3 construct: expressed in transfected cells; host or cells: SK-N-MC cells
T3 sequence (Q9Y5N1 whole entry): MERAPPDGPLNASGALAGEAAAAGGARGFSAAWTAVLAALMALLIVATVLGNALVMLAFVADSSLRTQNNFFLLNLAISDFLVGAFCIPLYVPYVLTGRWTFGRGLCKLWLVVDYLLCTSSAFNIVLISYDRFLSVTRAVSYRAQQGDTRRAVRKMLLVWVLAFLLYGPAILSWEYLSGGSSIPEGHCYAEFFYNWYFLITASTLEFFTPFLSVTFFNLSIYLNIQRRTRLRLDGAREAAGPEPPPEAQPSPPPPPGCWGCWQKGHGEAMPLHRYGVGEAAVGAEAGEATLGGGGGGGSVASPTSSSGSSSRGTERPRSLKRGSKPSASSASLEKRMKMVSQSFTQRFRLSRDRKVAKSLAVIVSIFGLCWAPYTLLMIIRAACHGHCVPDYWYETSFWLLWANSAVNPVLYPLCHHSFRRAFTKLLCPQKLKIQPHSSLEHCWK
Description: H3 Receptor Binding (Human). The settings on record: average of results obtained. The procedure:
Binding of compounds to the cloned human H3 receptors, stably expressed in SK-N-MC cells, was performed as described by Barbier, A. J. et al. (Br. J. Pharmacol. 2004, 143(5), 649-661). Data for compounds tested in this assay are presented in Table 1, as an average of results obtained.

In test [4] the target is T4, rat H3 receptor (rat brain membranes) (Rattus norvegicus, UniProt Q9QYN8).
T4 construct: A rat brain without cerebellum (Zivic Laboratories Inc., Pittsburgh, Pa.) was homogenized; tissue Zivic Laboratories Inc; host or cells: rat brain without cerebellum, membranes
T4 sequence (Q9QYN8 whole entry): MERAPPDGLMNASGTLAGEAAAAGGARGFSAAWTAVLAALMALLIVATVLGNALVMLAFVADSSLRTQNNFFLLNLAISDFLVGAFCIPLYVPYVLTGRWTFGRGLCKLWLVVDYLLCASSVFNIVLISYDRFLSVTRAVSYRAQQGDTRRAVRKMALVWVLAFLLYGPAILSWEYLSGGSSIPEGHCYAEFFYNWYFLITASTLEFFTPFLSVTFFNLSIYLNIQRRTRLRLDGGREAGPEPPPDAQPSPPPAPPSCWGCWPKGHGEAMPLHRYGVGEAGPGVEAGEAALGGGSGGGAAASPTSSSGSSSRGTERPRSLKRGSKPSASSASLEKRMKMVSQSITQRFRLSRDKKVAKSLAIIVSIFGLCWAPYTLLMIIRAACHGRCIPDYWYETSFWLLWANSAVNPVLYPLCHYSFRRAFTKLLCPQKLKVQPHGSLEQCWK
Description: H3 Receptor Binding (Rat). Conditions: rat brain without cerebellum membranes; 0.8 nM N-[3H]-alpha-methylhistamine; IC50 converted to Ki (Kd 0.8 nM); tested as the corresponding TFA salt. The procedure: A rat brain without cerebellum (Zivic Laboratories Inc., Pittsburgh, Pa.) was homogenized in 50 mM Tris-HCl/5 mM EDTA and centrifuged at 1,000 rpm for 5 min. The supernatant was removed and recentrifuged at 15,000 rpm for 30 min. Pellets were rehomogenized in 50 mM Tris/5 mM EDTA (pH 7.4). Membranes were incubated with 0.8 nM N—[^3H]-α-methylhistamine plus/minus test compounds for 60 min at 25° C. and harvested by rapid filtration over GF/C glass fiber filters (pretreated with 0.3% polyethylenimine) followed by four washes with buffer. Nonspecific binding was defined in the presence of 100 μM histamine. Inhibitory concentration (responsible for 50% inhibition of maximal effect, IC50) values were determined by a single site curve-fitting program (GraphPad, San Diego, Calif.) and converted to Ki values based on a N—[^3H]-α-methylhistamine dissociation constant (Kd) of 0.8 nM. The following results were obtained: Example 2, 28 nM; Example 6, 50 nM (tested as the corresponding TFA salt).

T1 sequence (Q9QYN8 whole entry): as above
T2 sequence (Q9Y5N1 whole entry): as the sequence (Q9Y5N1 whole entry) above

As to `O=C(c1cncc(Oc2ccc(F)cc2)c1)N1CCCN(C2CCC2)CC1` [Example 1, (4-Cyclobutyl-[1,4]diazepan-1-yl)-[5-(4-fluoro-phenoxy)-pyridin-3-yl]-methanone], the Kb in test [1] is 28.8 nM. Further, the “Human pA2” value in test [2] was determined as 8.87. In test [3], the affinity, expressed as Ki, was 3.6 nM.

On to `O=C(c1cncc(Oc2cccc(Cl)c2)c1)N1CCCN(C2CCC2)CC1` [Example 2, [5-(3-Chloro-phenoxy)-pyridin-3-yl]-(4-cyclobutyl-[1,4]diazepan-1-yl)-methanone], for which the Ki – broadly, the dissociation constant of the complex between target and ligand, obtained from inhibition or displacement – turned out to be 3.2 nM in test [3] and 28 nM in test [4].

Turning to `N#Cc1cccc(Oc2cncc(C(=O)N3CCCN(C4CCC4)CC3)c2)c1` [Example 3, 3-[5-(4-Cyclobutyl-[1,4]diazepane-1-carbonyl)-pyridin-3-yloxy]-benzonitrile], the Kb in test [1] is 6.17 nM; in test [2] it was 0.955 nM. The Ki in test [3] was found to be 1.9 nM.

In test [3], `O=C(c1cncc(Oc2ccccc2)c1)N1CCCN(C2CCC2)CC1` [Example 4, (4-Cyclobutyl-[1,4]diazepan-1-yl)-(5-phenoxy-pyridin-3-yl)-methanone] came in with a Ki of 3.4 nM.

In test [3], `COc1cccc(Oc2cncc(C(=O)N3CCCN(C4CCC4)CC3)c2)c1` [Example 5, (4-Cyclobutyl-[1,4]diazepan-1-yl)-[5-(3-methoxy-phenoxy)-pyridin-3-yl]-methanone] displayed a Ki of 3.4 nM.

As for `O=C(c1cncc(Oc2cccc(F)c2)c1)N1CCCN(C2CCC2)CC1` [Example 6, (4-Cyclobutyl-[1,4]diazepan-1-yl)-[5-(3-fluoro-phenoxy)-pyridin-3-yl]-methanone], the Kb in test [1] was 20.4 nM; in test [2], 2.4 nM. For the same compound, the Ki in test [3] was found to be 1 nM; in test [4], 50 nM.

For the compound `CC(C)Oc1cncc(C(=O)N2CCCN(C3CCC3)CC2)c1` [Example 7, (4-Cyclobutyl-[1,4]diazepan-1-yl)-(5-isopropoxy-pyridin-3-yl)-methanone], the affinity in test [3] corresponds to a Ki of 11 nM.

Consider `O=C(c1cncc(Sc2ccc(F)cc2)c1)N1CCCN(C2CCC2)CC1` [Example 8, (4-Cyclobutyl-[1,4]diazepan-1-yl)-[5-(4-fluoro-phenylsulfanyl)-pyridin-3-yl]-methanone], for which the Kb was 43.7 nM in test [1] and 3.98 nM in test [2]. Also, the Ki in test [3] was 2.9 nM.

`CC(C)Sc1cncc(C(=O)N2CCCN(C3CCC3)CC2)c1` [Example 9, (4-Cyclobutyl-[1,4]diazepan-1-yl)-(5-isopropylsulfanyl-pyridin-3-yl)-methanone] came in with a Ki in test [3] of 3 nM.

In the case of `O=C(c1cncc(Sc2ccccn2)c1)N1CCCN(C2CCC2)CC1` [Example 10, (4-Cyclobutyl-[1,4]diazepan-1-yl)-[5-(pyridin-2-ylsulfanyl)-pyridin-3-yl]-methanone], in test [3], affinity was put at a Ki of 6.6 nM.

In test [3], `O=C(c1cncc(Sc2ncccn2)c1)N1CCCN(C2CCC2)CC1` [Example 11, (4-Cyclobutyl-[1,4]diazepan-1-yl)-[5-(pyrimidin-2-ylsulfanyl)-pyridin-3-yl]-methanone] gave a Ki of 18 nM.

In test [3], `O=C(c1cncc(Sc2ccncc2)c1)N1CCCN(C2CCC2)CC1` [Example 12, (4-Cyclobutyl-[1,4]diazepan-1-yl)-[5-(pyridin-4-ylsulfanyl)-pyridin-3-yl]-methanone] gave a Ki of 1.8 nM.

For the compound `O=C(c1cc(Oc2ccccc2)ccn1)N1CCCN(C2CCC2)CC1` [Example 13, (4-Cyclobutyl-[1,4]diazepan-1-yl)-(4-phenoxy-pyridin-2-yl)-methanone], the Ki in test [3] came to 11 nM.

`O=C(c1cc(Oc2ccc(F)cc2)ccn1)N1CCCN(C2CCC2)CC1` [Example 14, (4-Cyclobutyl-[1,4]diazepan-1-yl)-[4-(4-fluoro-phenoxy)-pyridin-2-yl]-methanone]: in test [3], the affinity corresponds to a Ki of 17 nM.

In test [3], `O=C(c1cc(Sc2ccc(F)cc2)ccn1)N1CCCN(C2CCC2)CC1` [Example 15, (4-Cyclobutyl-[1,4]diazepan-1-yl)-[4-(4-fluoro-phenylsulfanyl)-pyridin-2-yl]-methanone] yielded a Ki of 12 nM.
